Results on five compounds are retold here after article PMC11249646, “Small-Molecule Disruptors of the Interaction between Calcium- and Integrin-Binding Protein 1 and Integrin αIIbβ3 as Novel Antiplatelet Agents” (ACS Pharmacology & Translational Science, 2024).

What all share (type): binding
The target of assay [1] is T1, CIB1 and αIIb interaction (GST-CIB1 : F-αIIb peptide) (Homo sapiens, UniProt Q99828).
T1 construct: made in house; host or cells: BL-21 plus RIL cells (E. coli)
T1 sequence (Q99828 1-191): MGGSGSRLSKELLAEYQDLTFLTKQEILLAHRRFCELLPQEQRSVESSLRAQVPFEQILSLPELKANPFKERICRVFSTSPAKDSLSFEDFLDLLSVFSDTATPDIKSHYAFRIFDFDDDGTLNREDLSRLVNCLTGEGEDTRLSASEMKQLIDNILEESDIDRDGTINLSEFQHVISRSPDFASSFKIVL
Kind of assay: FP assay, 384-well format (screen). To be noted: F-αIIb peptide; for 384-well SCREEN Confirm?: YES/NO; for IC50: read-out: 384-well SCREEN IC50. The arrangement: 384-well SCREEN Efficacy (%): concentration or dose not given beside the values.

The target of assay [2] is T2, GST-CIB1 : F-scrambled peptide (Homo sapiens, UniProt Q99828).
T2 construct: made in house; host or cells: BL-21 plus RIL cells (E. coli)
T2 sequence (Q99828 1-191): T1 sequence (Q99828 1-191)
The assay can be described thus: FP scrambled-peptide counter screen, 384-well format. To be noted: F-scrambled peptide; for 384-well COUNTERSCREEN Confirm?: *: Curve in opposite direction; for IC50: read-out: 384-well COUNTERSCREEN IC50.

In assay [3] the target is T3, CIB1 and αIIb interaction (CIB1-GST : F-αIIb peptide) (Homo sapiens, UniProt Q99828).
T3 construct: made in house; host or cells: BL-21 plus RIL cells (E. coli)
T3 sequence (Q99828 1-191): T1 sequence (Q99828 1-191)
The assay can be described thus: FP assay, 1536-well qHTS format (primary and confirmatory screen). To be noted: for CONFIRMATORY SCREEN Confirm?: YES/NO call; for CONFIRMATORY SCREEN Curve Class: qHTS curve class; for CONFIRMATORY SCREEN Curve Class / Curve Class: negative sign = inhibitory curve; for CONFIRMATORY SCREEN Efficacy (%) / Efficacy (%): negative = inhibition. (In general: qHTS replaces the single test concentration by a dilution series.)

Assay [4] concerns the target T2, GST-CIB1 : F-scrambled peptide. The assay can be described thus: FP scrambled-peptide counter screen, 1536-well format. To be noted: scrambled-peptide counterscreen; for COUNTERSCREEN Confirm?: YES/NO call; for COUNTERSCREEN Curve Class: qHTS curve class; for IC50: read-out: COUNTERSCREEN IC50. (Counterscreens check selectivity or assay interference.)
Setting [5] is: confirmatory screen, read-out: CONFIRMATORY SCREEN IC50.
Where [6] appears, read: qHTS FP screen hits, Table S2, one class per curve where COUNT > 1.
Setting [7] is: qHTS FP screen hits, Table S2, read-out: IC50.
[8] abbreviates: qHTS primary screen hits, Table S2.
Where [9] appears, read: qHTS primary screen hits, Table S2, several classes where COUNT > 1.
Setting [10] is: qHTS primary screen hits, Table S2, read-out: IC50.

The term IC50 denotes the concentration needed to halve the response being measured.

SMILES strings stand for the structures. Where two headings read alike, the source gives them in different places.

Take `Br.CCCCCCCCCCCCCCCC[N+](C)(C)C.[Br-]` [NCGC00164283-07]: in assay [1], the “384-well SCREEN Efficacy (%)” value was found to be 57%, the “384-well SCREEN Confirm?” value is listed as “YES” and the IC50 is 15.8 µM. Also, in assay [2], the “384-well COUNTERSCREEN Efficacy (%)” value stood at 44%, the “384-well COUNTERSCREEN Confirm?” value is given as “YES” and the IC50 turned out to be 2.5 µM. Besides, in assay [3] (confirmatory screen), the “CONFIRMATORY SCREEN Confirm?” value is listed as “YES”, the “CONFIRMATORY SCREEN Curve Class” value was -2.1 and the “CONFIRMATORY SCREEN Efficacy (%)” value was -114%. Moreover, in assay [3] (setting [5]), the IC50 was 70.8 µM. Moreover, the “Efficacy (%)” value in assay [3] (qHTS FP screen hits, Table S2) was -75%. Besides, in assay [3] (setting [6]), the “Curve Class” value is given as -2.2. In assay [3] (setting [7]), the IC50 was 79.4 µM. Moreover, in assay [4], the “COUNTERSCREEN Efficacy (%)” value was 0%, the “COUNTERSCREEN Confirm?” value is “YES” and the “COUNTERSCREEN Curve Class” value is 4.
Take `COc1cc(C(=O)NS(=O)(=O)c2ccccc2C)ccc1Cc1cn(C)c2ccc(NC(=O)OC3CCCC3)cc12` [NCGC00164547-06]: in assay [1], the “384-well SCREEN Efficacy (%)” value was determined as 38%, the “384-well SCREEN Confirm?” value is “YES” and the IC50 was 9.6 µM. In assay [2], the “384-well COUNTERSCREEN Efficacy (%)” value was 60%, the “384-well COUNTERSCREEN Confirm?” value is reported as “YES*” and the IC50 was 1 µM. Moreover, in assay [3] (confirmatory screen), the “CONFIRMATORY SCREEN Confirm?” value is recorded as “YES”, the “CONFIRMATORY SCREEN Curve Class” value is on record as -1.2 and the “CONFIRMATORY SCREEN Efficacy (%)” value is -58%. For the same compound, the IC50 in assay [3] (setting [5]) amounted to 14.1 µM. Moreover, in assay [3] (setting [8]), the “Efficacy (%)” value is reported as -38%. In addition, the “Curve Class” value in assay [3] (setting [9]) is recorded as -2.4. Besides, in assay [3] (setting [10]), the IC50 was determined as 35.5 µM. Further, in assay [4], the “COUNTERSCREEN Efficacy (%)” value was 37%, the “COUNTERSCREEN Confirm?” value is listed as “YES” and the IC50 was 50.1 µM.
Consider `CCOC(=O)N1CCN([N+]([O-])=NOc2ccc([N+](=O)[O-])cc2[N+](=O)[O-])CC1` [NCGC00165815-03], for which, in assay [1], the “384-well SCREEN Efficacy (%)” value stood at 61%, the “384-well SCREEN Confirm?” value was “YES” and the half-inhibitory concentration (IC50) stood at 1.8 µM. In addition, in assay [2], the “384-well COUNTERSCREEN Efficacy (%)” value is reported as 48%, the “384-well COUNTERSCREEN Confirm?” value was “YES” and the IC50 is 15.8 µM. Further, in assay [3] (confirmatory screen), the “CONFIRMATORY SCREEN Confirm?” value is on record as “YES”, the “CONFIRMATORY SCREEN Curve Class” value was -1.2 and the “CONFIRMATORY SCREEN Efficacy (%)” value is -62%. Moreover, the IC50 in assay [3] (setting [5]) worked out at 6.3 µM. In assay [4], the “COUNTERSCREEN Efficacy (%)” value is -56%, the “COUNTERSCREEN Confirm?” value is on record as “YES”, the “COUNTERSCREEN Curve Class” value is on record as -2.2 and the IC50 came to 44.7 µM.
In the case of `Cn1sc(=O)n(Cc2ccccc2)c1=O` [NCGC00165913-03], in assay [1], the “384-well SCREEN Efficacy (%)” value is on record as 90%, the “384-well SCREEN Confirm?” value is listed as “YES” and the IC50 was 1.7 µM. In assay [2], the “384-well COUNTERSCREEN Efficacy (%)” value is given as -20%, the “384-well COUNTERSCREEN Confirm?” value is “YES” and the IC50 was greater than 120 µM. In assay [3] (confirmatory screen), the “CONFIRMATORY SCREEN Confirm?” value is “YES”, the “CONFIRMATORY SCREEN Curve Class” value is given as -1.2 and the “CONFIRMATORY SCREEN Efficacy (%)” value is -81%. Moreover, in assay [3] (setting [5]), the IC50 worked out at 7.9 µM. In assay [3] (qHTS FP screen hits, Table S2), the “Efficacy (%)” value is -79%. Moreover, in assay [3] (setting [6]), the “Curve Class” value was -1.2. For the same compound, the concentration for half-maximal inhibition (IC50) in assay [3] (setting [7]) is 8.9 µM. Besides, in assay [4], the “COUNTERSCREEN Efficacy (%)” value is -22%, the “COUNTERSCREEN Confirm?” value is “YES” and the “COUNTERSCREEN Curve Class” value stood at 4.
Regarding `COc1cc(/C=C2/N=C(c3ccccc3)OC2=O)c(F)cc1OCc1ccccc1` [NCGC00168015-01], in assay [1], the “384-well SCREEN Efficacy (%)” value is given as 22% and the IC50 was greater than 120 µM. Further, in assay [2], the “384-well COUNTERSCREEN Efficacy (%)” value came out at 32% and the IC50 is greater than 120 µM. Moreover, in assay [3] (confirmatory screen), the “CONFIRMATORY SCREEN Confirm?” value is recorded as “YES”, the “CONFIRMATORY SCREEN Curve Class” value is reported as -2.2 and the “CONFIRMATORY SCREEN Efficacy (%)” value is -79%. The IC50 in assay [3] (setting [5]) came out at 44.7 µM. In addition, in assay [3] (setting [8]), the “Efficacy (%)” value is reported as -91%. Besides, the “Curve Class” value in assay [3] (setting [9]) was -2.1. The IC50 in assay [3] (setting [10]) was 50.1 µM. In assay [4], the “COUNTERSCREEN Efficacy (%)” value was -24%, the “COUNTERSCREEN Confirm?” value is recorded as “YES” and the “COUNTERSCREEN Curve Class” value is reported as 4.
